Data as given in publication PMC6303390, “Nucleotide-dependent DNA gripping and an end-clamp mechanism regulate the bacteriophage T4 viral packaging motor” (Nature Communications, 2018).

Key:
[1] = target: T1, bacteriophage T4 packaging motor (gp17 on emptied T4 heads) (Tequatrovirus T4, UniProt P17312); assay: optical tweezers single-DNA grip/slip assay with solution exchange; assay type: binding; conditions: 0.5 mM ADP, 5 pN force; 50 mM Tris-HCl pH 7.5, 5 mM MgCl2, 80 mM NaCl
T1 construct: gene 17; N-terminally His-tagged recombinant gp17 from E. coli, assembled as pentamer on emptied heads (10am13am mutant phage) that carry the gp20 portal; with Portal protein

[2] = target: T1, bacteriophage T4 packaging motor (gp17 on emptied T4 heads); assay: optical tweezers single-DNA packaging assay; assay type: biochemical; conditions: ATP-driven DNA translocation; 50 mM Tris-HCl pH 7.5, 5 mM MgCl2, 80 mM NaCl

T1 sequence (P17312 whole entry): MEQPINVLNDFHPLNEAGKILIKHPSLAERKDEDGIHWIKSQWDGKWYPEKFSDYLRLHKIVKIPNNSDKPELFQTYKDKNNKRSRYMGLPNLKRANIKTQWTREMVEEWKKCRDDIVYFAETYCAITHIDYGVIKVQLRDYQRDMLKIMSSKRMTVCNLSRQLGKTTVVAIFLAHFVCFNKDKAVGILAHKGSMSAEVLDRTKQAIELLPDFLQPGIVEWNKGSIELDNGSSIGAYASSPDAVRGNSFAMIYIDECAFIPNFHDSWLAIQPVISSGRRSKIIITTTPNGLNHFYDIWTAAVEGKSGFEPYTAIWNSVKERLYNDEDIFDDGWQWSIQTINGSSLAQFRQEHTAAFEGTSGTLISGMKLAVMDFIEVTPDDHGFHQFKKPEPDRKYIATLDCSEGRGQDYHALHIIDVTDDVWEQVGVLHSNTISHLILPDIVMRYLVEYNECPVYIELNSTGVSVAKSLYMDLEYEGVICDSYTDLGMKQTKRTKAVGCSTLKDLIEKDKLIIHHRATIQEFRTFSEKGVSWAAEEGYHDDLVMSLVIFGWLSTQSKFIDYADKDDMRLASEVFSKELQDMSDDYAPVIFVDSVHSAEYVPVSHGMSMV

Structure (SMILES)	optical tweezers single-DNA grip/slip assay with solution exchange [1]	optical tweezers single-DNA packaging assay [2]
Nc1ncnc2c1ncn2[C@@H]1O[C@H](COP(=O)(O)OP(=O)(O)O)[C@@H](O)[C@H]1O [ADP]	when ADP is used highly intermittent gripping is observed	–
Nc1ncnc2c1ncn2[C@@H]1O[C@H](COP(=O)(O)OP(=O)(O)OP(=O)(O)O)[C@@H](O)[C@H]1O [ATP]	–	In each case the motor restarts when the complex is moved back into ATP
